# Measurements taken from ChEMBL document CHEMBL1201862, “PubChem BioAssay data set” (2004).
#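 Cells were grown in 96-well plates and exposed to each compound for 48 hours at five concentrations; endpoints were interpolated linearly between bracketing concentrations, or set to the highest concentration if not reached. GI50 marks 50% less growth.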 The source made the active and inactive calls. No stated cut-off is given here; in the data, active = GI50 up to about 1.1 µM and inactive = higher.
# Legend:
# Test in all cases: DTP human tumour cell line panel, 48 h
# U-251 = tested on: U-251
# SNB-75 = tested on: SNB-75
# DU-145 = tested on: DU-145
# HCT-15 = tested on: HCT-15
# ACHN = tested on: ACHN
# SN12C = tested on: SN12C
# A549 = tested on: A549
# SK-MEL-28 = tested on: SK-MEL-28
# UACC-257 = tested on: UACC-257
# HCC 2998 = tested on: HCC 2998
# HT-29 = tested on: HT-29
# A498 = tested on: A498
# NCI-H226 = tested on: NCI-H226
# NCI-H23 = tested on: NCI-H23
# UO-31 = tested on: UO-31
# PC-3 = tested on: PC-3
# CAKI-1 = tested on: CAKI-1
# COLO 205 = tested on: COLO 205
# SW-620 = tested on: SW-620
# OVCAR-8 = tested on: OVCAR-8
# EKVX = tested on: EKVX
# TK-10 = tested on: TK-10
# HOP-62 = tested on: HOP-62
# SR = tested on: SR
# MDA-N = tested on: MDA-N
# CCRF-CEM = tested on: CCRF-CEM
# MCF7 = tested on: MCF7
# SK-MEL-2 = tested on: SK-MEL-2
# SK-OV-3 = tested on: SK-OV-3
# MDA-MB-435 = tested on: MDA-MB-435
# T47D = tested on: T47D
# M14 = tested on: M14
# Malme-3M = tested on: Malme-3M
# IGROV-1 = tested on: IGROV-1
# K562 = tested on: K562
# SNB-19 = tested on: SNB-19
# SK-MEL-5 = tested on: SK-MEL-5
# SF-295 = tested on: SF-295
# NCI/ADR-RES = tested on: NCI/ADR-RES
# Hs-578T = tested on: Hs-578T
# HL-60 = tested on: HL-60
# RPMI-8226 = tested on: RPMI-8226
# MDA-MB-231 = tested on: MDA-MB-231
# MOLT-4 = tested on: MOLT-4
# LOX IMVI = tested on: LOX IMVI
# HOP-92 = tested on: HOP-92
# HCT-116 = tested on: HCT-116
# NCI-H522 = tested on: NCI-H522
# OVCAR-5 = tested on: OVCAR-5
# SF-539 = tested on: SF-539
# 786-0 = tested on: 786-0
# UACC-62 = tested on: UACC-62
# SF-268 = tested on: SF-268
# KM12 = tested on: KM12
# RXF 393 = tested on: RXF 393
structure (smiles),measurement,setting,value
N#CC12CC(C=O)=C(N)C1(C#N)CC(C=O)=C2N (stereo not given),GI50,U-251,55.3 µM (inactive)
same,GI50,SNB-75,44.4 µM (inactive)
same,GI50,DU-145,46 µM (inactive)
same,GI50,HCT-15,8.34 µM
same,GI50,ACHN,> 100 µM (inactive)
same,GI50,SN12C,74.6 µM (inactive)
same,GI50,A549,> 100 µM (inactive)
same,GI50,SK-MEL-28,38.5 µM (inactive)
same,GI50,UACC-257,32.3 µM (inactive)
same,GI50,HCC 2998,26.5 µM (inactive)
same,GI50,HT-29,> 100 µM (inactive)
same,GI50,A498,> 100 µM (inactive)
same,GI50,NCI-H226,> 100 µM (inactive)
same,GI50,NCI-H23,28.3 µM (inactive)
same,GI50,UO-31,70.1 µM (inactive)
same,GI50,PC-3,72.3 µM (inactive)
same,GI50,CAKI-1,> 100 µM (inactive)
same,GI50,COLO 205,> 100 µM (inactive)
same,GI50,SW-620,49.7 µM (inactive)
same,GI50,OVCAR-8,63.7 µM (inactive)
same,GI50,EKVX,> 100 µM (inactive)
same,GI50,TK-10,> 100 µM (inactive)
same,GI50,HOP-62,65.9 µM (inactive)
same,GI50,SR,37.7 µM (inactive)
same,GI50,MDA-N,32.4 µM (inactive)
same,GI50,CCRF-CEM,36.7 µM (inactive)
same,GI50,MCF7,58.9 µM (inactive)
same,GI50,SK-MEL-2,24.1 µM (inactive)
same,GI50,SK-OV-3,> 100 µM (inactive)
same,GI50,MDA-MB-435,36.1 µM (inactive)
same,GI50,T47D,37.8 µM (inactive)
same,GI50,M14,35.9 µM (inactive)
same,GI50,Malme-3M,50.8 µM (inactive)
same,GI50,IGROV-1,71.9 µM (inactive)
same,GI50,K562,45.9 µM (inactive)
same,GI50,SNB-19,52.8 µM (inactive)
same,GI50,SK-MEL-5,20.8 µM (inactive)
same,GI50,SF-295,> 100 µM (inactive)
same,GI50,NCI/ADR-RES,> 100 µM (inactive)
same,GI50,Hs-578T,34 µM (inactive)
same,GI50,HL-60,23.7 µM (inactive)
same,GI50,RPMI-8226,52.6 µM (inactive)
same,GI50,MDA-MB-231,> 100 µM (inactive)
same,GI50,MOLT-4,50.8 µM (inactive)
same,GI50,LOX IMVI,34.4 µM (inactive)
same,GI50,HOP-92,32.5 µM (inactive)
same,GI50,HCT-116,47.3 µM (inactive)
same,GI50,NCI-H522,> 100 µM (inactive)
same,GI50,OVCAR-5,> 100 µM (inactive)
same,GI50,SF-539,81.8 µM (inactive)
same,GI50,786-0,> 100 µM (inactive)
same,GI50,UACC-62,36.2 µM (inactive)
same,GI50,SF-268,31.1 µM (inactive)
same,GI50,KM12,88.9 µM (inactive)
same,GI50,RXF 393,41.9 µM (inactive)
